We go through six compounds from article PMC7466635, “Identification of Quinazolinone Analogs Targeting CDK5 Kinase Activity and Glioblastoma Cell Proliferation” (Frontiers in Chemistry, 2020).

For test [1], the target named is T1, CDK5 (Homo sapiens, UniProt Q00535). Description: CDKACT5-Cy5 fluorescent kinase activity biosensor with U87 cell extract; residual activity at […], IC50 not fittable. Conditions: U-87 MG. Type of test: cell-based.
The target of test [2] is T1, CDK5. Description: biochemical.
Test [3] has as its target T1, CDK5. Description: biochemical. This is another data set of the same source.

Where two headings read alike, the source gives them in different places.

T1 sequence (Q00535 whole entry): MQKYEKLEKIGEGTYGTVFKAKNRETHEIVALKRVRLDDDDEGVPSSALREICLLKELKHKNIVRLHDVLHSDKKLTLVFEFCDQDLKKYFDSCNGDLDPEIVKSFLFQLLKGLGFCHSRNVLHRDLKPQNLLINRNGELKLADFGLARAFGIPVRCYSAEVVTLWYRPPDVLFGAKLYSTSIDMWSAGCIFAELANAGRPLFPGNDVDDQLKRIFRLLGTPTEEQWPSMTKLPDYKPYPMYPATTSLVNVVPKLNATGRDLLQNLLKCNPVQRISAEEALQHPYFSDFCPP
T1 sequence (Q15078 2-307 partner): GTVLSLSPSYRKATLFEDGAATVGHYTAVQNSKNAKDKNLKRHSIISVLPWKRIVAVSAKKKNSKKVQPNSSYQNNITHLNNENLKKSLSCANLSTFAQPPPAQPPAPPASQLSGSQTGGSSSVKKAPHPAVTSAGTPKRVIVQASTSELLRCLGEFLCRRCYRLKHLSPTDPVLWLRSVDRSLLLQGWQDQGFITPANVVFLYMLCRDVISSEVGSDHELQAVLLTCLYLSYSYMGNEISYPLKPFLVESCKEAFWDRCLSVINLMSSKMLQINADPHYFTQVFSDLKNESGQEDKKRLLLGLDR

At CDK5 [1], `Nc1ccc2[nH]c(SCc3nc4ccccc4c(=O)n3-c3cccc(C(F)(F)F)c3)nc2c1` [5a, JMV5798] showed an activity at 100 µM of 40.2 ± 2.4%.
What is called IC50 is the concentration that gives 50% inhibition. `Nc1ccc2[nH]c(SCc3nc4ccccc4c(=O)n3-c3ccccc3)nc2c1` [5d, JMV5800] registered a 50% inhibitory concentration (IC50) against CDK5 [2] of 8.29 ± 3.56 µM.
`Nc1ccc2[nH]c(SCc3nc4ccccc4c(=O)n3-c3ccccc3Br)nc2c1` [5j, JMV5886] returned an IC50 at CDK5 [3] of 24.4 ± 32.5 µM.
Consider `Nc1ccc2[nH]c(SCc3nc4ccccc4c(=O)n3-c3ccc(Br)cc3)nc2c1` [5l, JMV5889], for which 28.7 ± 51.2 µM corresponded to half-maximal inhibition on CDK5 [3] (IC50).
Regarding `Nc1ccc2[nH]c(SCc3nc4ccccc4c(=O)n3-c3cccc(Cl)c3)nc2c1` [5m, JMV5884], half-maximal inhibition against CDK5 [2] (IC50) required 7.6 ± 3.8 µM.
With `Cc1ccc2c(=O)n(-c3ccccc3)c(CSc3nc4cc(N)ccc4[nH]3)nc2c1` [5p, JMV5735], the IC50 against CDK5 [3] was 9.35 ± 11.1 µM.
